What was measured:
Experiment in all cases: relative viability (nuclei count vs DMSO), 5 days (fraction); higher = more cells survive
RU-SKI 43 + Navitoclax = compound: CC[C@@H](C)CNCC(=O)N1CCC2=C([C@@H]1COC3=CC=CC(=C3)C)C=CS2 [RU-SKI 43] + CC1(C)CCC(c2ccc(Cl)cc2)=C(CN2CCN(c3ccc(C(=O)NS(=O)(=O)c4ccc(N[C@H](CCN5CCOCC5)CSc5ccccc5)c(S(=O)(=O)C(F)(F)F)c4)cc3)CC2)C1 [Navitoclax] (partner 0.5 µM)
In short: (§1)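 Relative viability equals treated-well nuclei counts divided by vehicle-well nuclei counts. Counts came from 4× images of lung cancer cell lines grown in 1536-well plates for 5 days after pin-tool dosing on the day after seeding. Dosing used one drug alone or a fixed anchor-drug dose plus five library-drug doses (not always all listed) in √10 steps, and values are medians of duplicate plates.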

Irinotecan + Luminespib = compound: CCc1c2c(nc3ccc(OC(=O)N4CCC(N5CCCCC5)CC4)cc13)-c1cc3c(c(=O)n1C2)COC(=O)[C@]3(O)CC [Irinotecan] + CCNC(=O)c1noc(-c2cc(C(C)C)c(O)cc2O)c1-c1ccc(CN2CCOCC2)cc1 [Luminespib] (partner 0.01 µM)
In short: as §1

Irinotecan + Pictilisib = compound: CCc1c2c(nc3ccc(OC(=O)N4CCC(N5CCCCC5)CC4)cc13)-c1cc3c(c(=O)n1C2)COC(=O)[C@]3(O)CC [Irinotecan] + CS(=O)(=O)N1CCN(Cc2cc3nc(-c4cccc5[nH]ncc45)nc(N4CCOCC4)c3s2)CC1 [Pictilisib] (partner 1 µM)
In short: as §1

Cell Line | relative viability (RU-SKI 43 + Navitoclax; first compound 0.1 µM) | relative viability (RU-SKI 43 + Navitoclax; first compound 0.3162 µM) | relative viability (RU-SKI 43 + Navitoclax; first compound 1 µM) | relative viability (RU-SKI 43 + Navitoclax; first compound 3.162 µM) | relative viability (RU-SKI 43 + Navitoclax; first compound 10 µM) | relative viability (Irinotecan + Luminespib; first compound 0.6325 µM) | relative viability (Irinotecan + Luminespib; first compound 2 µM) | relative viability (Irinotecan + Luminespib; first compound 6.325 µM) | relative viability (Irinotecan + Luminespib; first compound 20 µM) | relative viability (Irinotecan + Pictilisib; first compound 0.6325 µM) | relative viability (Irinotecan + Pictilisib; first compound 2 µM) | relative viability (Irinotecan + Pictilisib; first compound 6.325 µM) | relative viability (Irinotecan + Pictilisib; first compound 20 µM)
NCI-H838 | 1.17 | 1.31 | 1.27 | 1.22 | 1.1 | 0.23 | 0.262 | 0.213 | 0.266 | 0.472 | 0.403 | 0.279 | 0.214
NCI-H1355 | 0.936 | 0.996 | 0.921 | 0.979 | 0.997 |  | 0.515 | 0.308 | 0.278 | 0.201 | 0.407 | 0.202 | 0.238
NCI-H1395 | 1.15 | 1.15 | 1.32 | 1.14 | 1.02 | 0.76 | 0.651 | 0.388 | 0.534 |  | 0.539 | 0.471 | 0.35
NCI-H1437 | 1.08 | 1.33 | 1.13 | 1.09 | 0.998 | 0.955 | 0.723 | 0.4 | 0.338 | 0.366 | 0.322 | 0.184 | 0.115
NCI-H1650 | 1.17 | 1.38 | 1.41 | 1.06 | 0.813 |  | 0.212 | 0.277 | 0.271 | 0.254 | 0.657 | 0.295 | 0.108
NCI-H1651 | 1.05 | 1.24 | 1.14 | 1.01 | 1.01 | 0.573 | 0.522 | 0.281 | 0.2 | 0.427 | 0.425 | 0.175 | 0.108
NCI-H1666 | 0.9 | 1.08 | 0.888 | 0.852 | 0.848 | 0.858 | 0.721 | 0.658 | 0.331 | 0.559 | 0.338 | 0.409 | 0.311
NCI-H1734 | 0.867 | 1.49 | 0.911 | 0.899 | 0.803 |  | 0.203 | 0.222 | 0.353 | 0.298 | 0.446 | 0.16 | 0.184
NCI-H1755 | 1.04 | 1.14 | 1.06 | 1.06 | 1.05 | 0.433 | 0.415 | 0.299 | 0.241 | 0.249 | 0.382 | 0.224 | 0.361
NCI-H1792 | 0.65 | 0.908 | 0.968 | 0.612 | 0.685 | 0.726 | 0.491 | 0.34 | 0.321 | 0.281 | 0.199 | 0.106 | 0.11
NCI-H1793 | 0.458 | 0.417 | 0.425 | 0.511 | 0.318 |  | 0.193 | 0.192 | 0.262 |  | 0.259 | 0.189 | 0.29
NCI-H1915 | 0.776 | 0.83 | 0.8 | 0.821 | 0.78 | 0.346 | 0.36 | 0.149 | 0.132 | 0.341 | 0.261 | 0.185 | 0.195
NCI-H1944 | 1.02 | 1.05 | 1.12 | 1.02 | 0.938 | 0.557 | 0.312 | 0.167 | 0.149 | 0.235 | 0.251 | 0.181 | 0.214
NCI-H1975 | 1.06 | 1.45 | 1.07 | 1.07 | 1.07 | 0.107 | 0.201 | 0.175 | 0.235 | 0.339 | 0.316 | 0.204 | 0.154
NCI-H1993 | 0.932 | 0.91 | 0.982 | 1.05 | 1.02 | 0.784 | 0.745 | 0.667 | 1.58 | 0.695 | 0.816 | 0.628 | 0.443
NCI-H2009 | 1.11 | 1.21 | 1.17 | 1.15 | 1.1 | 0.863 | 0.486 | 0.25 | 0.252 | 0.342 | 0.515 | 0.232 | 0.0786
